Measurements reported in patent US20230225990A1, “DIMETHYL SULFONE FOR TREATMENT OF CHRONICALLY HEAT STRESSED POULTRY” (Evonik Operations GmbH, priority 2020, published 2023).
Marks after values point to notes of the source that are not given here.

What was measured:
[1] = test system: chronically heat stressed poultry; assay: Litter moisture; format: in vivo; conditions: control diet+0.05 wt.-% DMS; d-42
Excerpt: For this purpose, two treatments (T1: control diet, and T2: control diet+0.05 wt.-% DMS) were done with 13 replicate pens each and 10 birds per pen. Collection of litter was done at days 28 and 42 to determine litter moisture. The sampling of the litter was done in five different points in each pen (each corner and the centre of each pen) and then homogenized to compose the representative sample of the pen. […] Calculating was done according to the formula: […]

[2] = test system: male broilers subjected to chronic cyclic heat stress; assay: Body weight and rectal temperature of birds sampled at d-23, d-25 and d-39; format: in vivo, broiler chickens (Ross 308)
Experimental: Sampling of one bird per pen (with weight close to average weight of the pen) on d-23, d-25 and on d-39 (on d-25 and d-39, sampling starts after >3 h of heat stress that day; 108 birds in total) • malondialdehyde, HSP70 (Chicken Heat Shock Protein 70, Hsp-70 ELISA Kit) Cusabio Code CSB-E11196Ch), HSP90 (Chicken Heat Shock Protein 90, HSP-90 ELISA Kit; Cusabio Code CSB-E12873C), GPx, SOD in plasma; GSH/GSSG in erythrocytes; and T3, T4 and nitric oxide in serum • Breast muscle and liver: malondialdehyde, AOX (GPx, SOD), GSH/GSSG
For physiological measurements, time of sampling (representing the number of minutes between the beginning of heat stress and the precise moment of sampling of the bird that day), if appropriate, was included in the model as a covariable if significant as well. Orthogonal contrasts were applied to test for linear and quadratic effects upon incremental levels of DMS supplementation in the diet. Means are given as estimated marginal means (least square means). Means were separated using the Tukey post-hoc test. Differences were considered significant when p<0.05 and as a trend for significance when p<0.1.
At d-23, d-25 and d39, one bird per pen (with weight close to average weight of the pen) was sampled. On d-25 and d-39, sampling started after >3 h of heat stress that day. Thus, in total 108 birds were sampled, and various endpoints were determined in several tissues. To recall, finisher period started on d-21, while the heat stress protocol was implemented from d-24 onwards. It means that d-23 was the last day prior to heat stress and d-25 the second day whereby birds were subjected to high temperatures. Body weights on d-23 and d-25 (Table 7) were naturally higher than those reported on d-21 (Table 3), but not affected by treatment. Body weights at d-39 for sampled birds are very close to body weights for d-39 shown in Table 3, which confirms that birds with weight close to average weight of the pen were selected. Again, this was not affected by supplementation with DMS. Rectal temperature of sampled birds on d-23 represents values for thermo-neutral conditions, and thus ranged between 41.1 and 41.3° C. without treatment differences (FIG. 15). However, on d-25 rectal temperatures were largely elevated and obviously affected by diet (P<0.05). […] Nonetheless, observations are in line with findings on d-38 (Table 4).

[3] = 0.2% DMS in diet (T3), sampled birds d-25

Q: Which results are given for `CS(C)(=O)=O` [DMS, dimethyl sulfone]?
A: Moisture content in the litter [1]: clear reduction; Body weight ([2]; 0.1% DMS in diet (T2), sampled birds d-23): 1361 g; Rectal temperature ([2]; 0.1% DMS in diet (T2), sampled birds d-23 (prior to heat stress)): 41.3 °C; Body weight ([2]; 0.1% DMS in diet (T2), sampled birds d-25): 1544 g; Rectal temperature ([2]; 0.1% DMS in diet (T2), sampled birds d-25, during heat stress): 42.5^b ° C.; Body weight ([2]; 0.1% DMS in diet (T2), sampled birds d-39): 3097 g; Rectal temperature ([2]; 0.1% DMS in diet (T2), sampled birds d-39, during heat stress): 42.6 °C; Body weight ([2]; 0.2% DMS in diet (T3), sampled birds d-23): 1352 g; Rectal temperature ([2]; 0.2% DMS in diet (T3), sampled birds d-23 (prior to heat stress)): 41.1 °C; Body weight [2, 3]: 1536 g; Rectal temperature lower than control [2, 3]: 0.5 °C; Rectal temperature ([2]; 0.2% DMS in diet (T3), sampled birds d-25, during heat stress): 42.3^b ° C.; Body weight ([2]; 0.2% DMS in diet (T3), sampled birds d-39): 3068 g; Rectal temperature ([2]; 0.2% DMS in diet (T3), sampled birds d-39, during heat stress): 42.3 °C
